# Assay results as given in ChEMBL document CHEMBL1158324, “Isolation, structure elucidation, and biological activity of the steroid oligoglycosides and polyhydroxysteroids from the Antarctic starfish Acodontaster conspicuus” (J Nat Prod, 1997).
# Calls of active or inactive are those of the source. The rule behind the calls is not given here.
# Tests used:
# Type in all cases: functional, organism-based
# [1] = system: Acodontaster conspicuus; assay: Antimicrobial activity against Acodontaster conspicuus McM13.3 at 20 degC after 48 hrs by paper disk method
# [2] = system: Acodontaster conspicuus; assay: Antimicrobial activity against Acodontaster conspicuus McM32.2 at 20 degC after 48 hrs by paper disk method
# [3] = system: Acodontaster conspicuus; assay: Antimicrobial activity against Acodontaster conspicuus McM11.5 at 20 degC after 72 hrs by paper disk method
# [4] = system: Acodontaster conspicuus; assay: Antimicrobial activity against Acodontaster conspicuus McM18.1 at 20 degC after 48 hrs by paper disk method
SMILES,Activity [1],Activity [2],Activity [3],Activity [4]
CO[C@H]1[C@H](O[C@H]2[C@H](OC[C@@H](C)[C@H](C)/C=C/[C@@H](C)[C@H]3C[C@@H](O)[C@@H]4[C@]3(C)CC[C@@H]3[C@@]5(C)CC[C@H](O)[C@H](O)[C@@H]5[C@@H](O)C[C@]34O)OC[C@@H](O)[C@@H]2O)OC[C@@H](O)[C@@H]1O,Active,Active,,
CO[C@H]1[C@H](O[C@H]2[C@H](OC[C@@H](C)[C@H](C)/C=C/[C@@H](C)[C@H]3C[C@@H](O)C4=C5C[C@H](O)[C@H]6C[C@@H](O)CC[C@]6(C)[C@H]5CC[C@@]43C)OC[C@@H](O)[C@@H]2O)OC[C@@H](O)[C@@H]1O,,,Active,
CC(C)[C@@H](O)/C=C/[C@@H](C)[C@H]1C[C@@H](O)[C@@H]2[C@]1(C)CC[C@H]1[C@@]2(O)C[C@H](O)C2C[C@@H](O)CC[C@@]21C (some centres not stated),Active,Active,,
C[C@H](/C=C/[C@@H](C)[C@H]1C[C@@H](O)C2=C3C[C@H](O)C4C[C@@H](O)CC[C@]4(C)[C@H]3CC[C@@]21C)[C@H](C)CO (some centres not stated),Active,Active,,
CC(C)C[C@@H]1O[C@H]1[C@@](C)(O)[C@H]1CC[C@H]2[C@@H]3C[C@H](O[C@@H]4O[C@H](C)[C@@H](O)[C@H](O[C@@H]5OC[C@@H](O[C@@H]6O[C@H](CO)[C@H](O)[C@H](O)[C@H]6O[C@@H]6O[C@H](C)[C@@H](O)[C@H](O)[C@H]6O)[C@H](O)[C@H]5O[C@H]5O[C@@H](C)[C@H](O)[C@@H](O)[C@@H]5O)[C@H]4O)[C@H]4C[C@@H](OS(=O)(=O)O)CC[C@]4(C)C3=CC[C@]12C,inactive,inactive,inactive,inactive
CC(C)[C@@H](C)C(=O)C[C@@](C)(O)[C@H]1CC[C@H]2[C@@H]3C[C@H](O[C@@H]4O[C@H](C)[C@@H](O)[C@H](O[C@@H]5OC[C@@H](O[C@@H]6O[C@H](CO)[C@H](O)[C@H](O)[C@H]6O[C@@H]6O[C@H](C)[C@@H](O)[C@H](O)[C@H]6O)[C@H](O)[C@H]5O[C@H]5O[C@@H](C)[C@H](O)[C@@H](O)[C@@H]5O)[C@H]4O)[C@H]4C[C@@H](OS(=O)(=O)O)CC[C@]4(C)C3=CC[C@@]21C,inactive,inactive,inactive,inactive
CC(C)/C(=C/CO[C@@H]1OC[C@@H](O)[C@H](O)[C@H]1O)CC[C@@H](C)[C@H]1C[C@@H](O)C2=C3C[C@H](O)[C@H]4C[C@@H](O)CC[C@]4(C)[C@H]3CC[C@@]21C,Active,Active,,
CC(C)CC(=O)C[C@@](C)(O)[C@H]1CC[C@H]2[C@@H]3C[C@H](O[C@@H]4O[C@H](C)[C@@H](O)[C@H](O[C@@H]5OC[C@@H](O[C@@H]6O[C@H](CO)[C@H](O)[C@H](O)[C@H]6O[C@@H]6O[C@H](C)[C@@H](O)[C@H](O)[C@H]6O)[C@H](O)[C@H]5O[C@H]5O[C@@H](C)[C@H](O)[C@@H](O)[C@@H]5O)[C@H]4O)[C@H]4C[C@@H](OS(=O)(=O)O)CC[C@]4(C)C3=CC[C@@]21C,inactive,inactive,inactive,inactive
C=C(CC[C@@H](C)[C@H]1C[C@@H](O)[C@@H]2[C@]1(C)CC[C@@H]1[C@@]3(C)CC[C@H](O)[C@H](O)[C@@H]3[C@@H](O)C[C@]12O)C(C)CO[C@@H]1OC[C@@H](O)[C@H](O)[C@H]1O[C@@H]1OC[C@@H](O)[C@H](O)[C@H]1OC (some centres not stated),,Active,,
CC(/C=C/[C@@H](C)[C@H]1C[C@@H](O)C2=C3C[C@H](O)C4C[C@@H](O)CC[C@]4(C)[C@H]3CC[C@@]21C)CO (some centres not stated),Active,,,
CO[C@H]1[C@H](O[C@H]2[C@H](OCC[C@H](CC[C@@H](C)[C@H]3C[C@@H](O)[C@@H]4[C@]3(C)CC[C@@H]3[C@@]5(C)CC[C@H](O)[C@H](O)[C@@H]5[C@@H](O)C[C@]34O)C(C)C)OC[C@@H](O)[C@@H]2O)OC[C@@H](O)[C@@H]1O,Active,Active,,
CC(C)[C@@H](CCO[C@@H]1OC[C@@H](O)[C@H](O)[C@H]1O[C@@H]1OC[C@@H](O)[C@H](O)[C@H]1O)CC[C@@H](C)[C@H]1C[C@@H](O)[C@@H]2[C@]1(C)CC[C@@H]1[C@@]3(C)CC[C@H](O)[C@H](O)[C@@H]3[C@@H](O)C[C@]12O,Active,Active,,
